According to patent US5441941A, “1,2-dihydroellipticines with activity against CNS specific cancer” (The United States of America as represented by the …, priority 1993, dated 1995):

Legend:
EKVX = test: cells; conditions: Homo sapiens
SW-620 = test: cells; conditions: Homo sapiens
HL-60 (TB) = test: NCI in vitro screen, SRB percent growth, Leukemia
K-562 = test: NCI in vitro screen, SRB percent growth, Leukemia
LOX IMVI = test: NCI in vitro screen, SRB percent growth, Melanoma
MALME-3M = test: NCI in vitro screen, SRB percent growth, Melanoma
M19-MEL = test: NCI in vitro screen, SRB percent growth, Melanoma
UACC-62 = test: NCI in vitro screen, SRB percent growth, Melanoma
SF-295 = test: NCI in vitro screen, SRB percent growth, CNS Cancer
SF-539 = test: as above
SNB-75 = test: as above
KM12 = test: NCI in vitro screen, SRB percent growth, Colon Cancer
IGROV1 = test: NCI in vitro screen, SRB percent growth, Ovarian Cancer
OVCAR-5 = test: as above
SK-OV-3 = test: as above
NCI-H23 = test: NCI in vitro screen, SRB percent growth, Non-Small Cell Lung Cancer
[1] = SW-620, read-out: Percent Growth
[2] = Log10 Concentration -4.0, 100 µM
[3] = Log10 Concentration -7.0, 0.1 µM

For `COc1ccc2[nH]c3c(C)c4c(c(C)c3c2c1)CN(C)C=C4` [Formula VII], the GI50 (EKVX) was 0.774 µM, the activity at 0.01 µM (EKVX; read-out: Percent Growth) was 114% and the activity at 0.1 µM (EKVX; read-out: Percent Growth) was 108%. For the same compound, the activity at 1 µM (EKVX; read-out: Percent Growth) was 43%, the activity at 10 µM (EKVX; read-out: Percent Growth) was 3% and the activity at 100 µM (EKVX; read-out: Percent Growth) was -11%. For the same compound, the IC (TGI) (EKVX; read-out: TGI) was 16.5 µM, the GI50 (SW-620; SW-620) was 1.05 µM and the CC50 (SW-620; SW-620, read-out: LC-50) was greater than 100 µM. The activity at 0.01 µM (SW-620; [1]) was 89%, the activity at 0.1 µM (SW-620; [1]) was 77% and the activity at 1 µM (SW-620; [1]) was 51%. The activity at 10 µM (SW-620; [1]) was 18%, the activity at 100 µM (SW-620; [1]) was -39% and the IC (TGI) (SW-620; SW-620, read-out: TGI) was 20.4 µM. The “Percent Growth” value (HL-60 (TB); [2]) was -43%, the “Percent Growth” value (HL-60 (TB); Log10 Concentration -5.0) was 93% and the “Percent Growth” value (HL-60 (TB); Log10 Concentration -6.0, 1 µM) was 121%. The “Percent Growth” value (HL-60 (TB); [3]) was 123%, the “Percent Growth” value (HL-60 (TB); Log10 Concentration -8.0) was 118% and the TGI (HL-60 (TB); PG=0) was 48.5 µM. For the same compound, the GI50 (HL-60 (TB); PG=+50) was 20.8 µM, the CC50 (HL-60 (TB); read-out: LC-50, PG=-50) was greater than 10000 µM and the “Percent Growth” value (K-562; [2]) was -24%. The “Percent Growth” value (K-562; Log10 Concentration -5.0) was 11%, the “Percent Growth” value (K-562; Log10 Concentration -6.0, 1 µM) was 75% and the “Percent Growth” value (K-562; [3]) was 84%. For the same compound, the TGI (K-562; PG=0) was 20.4 µM, the GI50 (K-562; PG=+50) was 2.48 µM and the CC50 (K-562; read-out: LC-50, PG=-50) was greater than 100 µM. The “Percent Growth” value (LOX IMVI; [2]) was -19%, the “Percent Growth” value (LOX IMVI; Log10 Concentration -5.0) was 58% and the “Percent Growth” value (LOX IMVI; Log10 Concentration -6.0, 1 µM) was 119%. The “Percent Growth” value (LOX IMVI; Log10 Concentration -8.0) was 129%, the TGI (LOX IMVI; PG=0) was 56.9 µM and the GI50 (LOX IMVI; PG=+50) was 12.8 µM. For the same compound, the CC50 (LOX IMVI; read-out: LC-50, PG=-50) was greater than 100 µM, the “Percent Growth” value (MALME-3M; Log10 Concentration -5.0) was -31% and the “Percent Growth” value (MALME-3M; Log10 Concentration -6.0, 1 µM) was 55%. For the same compound, the “Percent Growth” value (MALME-3M; [3]) was 110%, the “Percent Growth” value (MALME-3M; Log10 Concentration -8.0) was 112% and the TGI (MALME-3M; PG=0) was 4.37 µM. The GI50 (MALME-3M; PG=+50) was 1.41 µM, the CC50 (MALME-3M; read-out: LC-50, PG=-50) was greater than 100 µM and the “Percent Growth” value (M19-MEL; [2]) was -62%. The “Percent Growth” value (M19-MEL; Log10 Concentration -5.0) was -36%, the “Percent Growth” value (M19-MEL; Log10 Concentration -6.0, 1 µM) was 48% and the “Percent Growth” value (M19-MEL; [3]) was 95%. The “Percent Growth” value (M19-MEL; Log10 Concentration -8.0) was 117%, the TGI (M19-MEL; PG=0) was 3.7 µM and the GI50 (M19-MEL; PG=+50) was 0.899 µM. For the same compound, the CC50 (M19-MEL; read-out: LC-50, PG=-50) was 34.7 µM, the “Percent Growth” value (UACC-62; [2]) was -44% and the “Percent Growth” value (UACC-62; Log10 Concentration -5.0) was 31%. The “Percent Growth” value (UACC-62; Log10 Concentration -6.0, 1 µM) was 88%, the “Percent Growth” value (UACC-62; [3]) was 118% and the “Percent Growth” value (UACC-62; Log10 Concentration -8.0) was 129%. It also gave a TGI (UACC-62; PG=0) of 26.1 µM, a GI50 (UACC-62; PG=+50) of 4.68 µM and a CC50 (UACC-62; read-out: LC-50, PG=-50) greater than 100 µM. The “Percent Growth” value (SF-295; [2]) was -51%, the “Percent Growth” value (SF-295; Log10 Concentration -5.0) was -30% and the “Percent Growth” value (SF-295; Log10 Concentration -6.0, 1 µM) was 11%. The “Percent Growth” value (SF-295; [3]) was 65%, the “Percent Growth” value (SF-295; Log10 Concentration -8.0) was 88% and the TGI (SF-295; PG=0) was 1.89 µM. For the same compound, the GI50 (SF-295; PG=+50) was 0.191 µM, the CC50 (SF-295; read-out: LC-50, PG=-50) was 89.5 µM and the “Percent Growth” value (SF-539; [2]) was -33%. For the same compound, the “Percent Growth” value (SF-539; Log10 Concentration -5.0) was -43%, the “Percent Growth” value (SF-539; Log10 Concentration -6.0, 1 µM) was 30% and the “Percent Growth” value (SF-539; [3]) was 99%. For the same compound, the “Percent Growth” value (SF-539; Log10 Concentration -8.0) was 116%, the TGI (SF-539; PG=0) was 2.6 µM and the GI50 (SF-539; PG=+50) was 0.518 µM. For the same compound, the CC50 (SF-539; read-out: LC-50, PG=-50) was greater than 100 µM, the “Percent Growth” value (SNB-75; [2]) was -58% and the “Percent Growth” value (SNB-75; Log10 Concentration -5.0) was -78%. For the same compound, the “Percent Growth” value (SNB-75; Log10 Concentration -6.0, 1 µM) was -53%, the “Percent Growth” value (SNB-75; [3]) was 86% and the “Percent Growth” value (SNB-75; Log10 Concentration -8.0) was 126%. For the same compound, the TGI (SNB-75; PG=0) was 0.416 µM, the CC50 (SNB-75; read-out: LC-50, PG=-50) was 0.953 µM and the “Percent Growth” value (KM12; [2]) was -86%. The “Percent Growth” value (KM12; Log10 Concentration -6.0, 1 µM) was 28%, the “Percent Growth” value (KM12; [3]) was 59% and the “Percent Growth” value (KM12; Log10 Concentration -8.0) was 78%. The TGI (KM12; PG=0) was 2.32 µM, the GI50 (KM12; PG=+50) was 0.194 µM and the CC50 (KM12; read-out: LC-50, PG=-50) was 10.6 µM. The “Percent Growth” value (IGROV1; [2]) was -20%, the “Percent Growth” value (IGROV1; Log10 Concentration -5.0) was 14% and the “Percent Growth” value (IGROV1; Log10 Concentration -6.0, 1 µM) was 47%. The “Percent Growth” value (IGROV1; [3]) was 80%, the “Percent Growth” value (IGROV1; Log10 Concentration -8.0) was 105% and the TGI (IGROV1; PG=0) was 25.3 µM. The GI50 (IGROV1; PG=+50) was 0.819 µM, the CC50 (IGROV1; read-out: LC-50, PG=-50) was greater than 100 µM and the “Percent Growth” value (OVCAR-5; [2]) was -10%. The “Percent Growth” value (OVCAR-5; Log10 Concentration -5.0) was 70%, the “Percent Growth” value (OVCAR-5; Log10 Concentration -6.0, 1 µM) was 119% and the “Percent Growth” value (OVCAR-5; [3]) was 136%. For the same compound, the “Percent Growth” value (OVCAR-5; Log10 Concentration -8.0) was 133%, the TGI (OVCAR-5; PG=0) was 75.5 µM and the GI50 (OVCAR-5; PG=+50) was 17.8 µM. The CC50 (OVCAR-5; read-out: LC-50, PG=-50) was greater than 100 µM, the “Percent Growth” value (SK-OV-3; [2]) was -23% and the “Percent Growth” value (SK-OV-3; Log10 Concentration -5.0) was 148%. The “Percent Growth” value (SK-OV-3; Log10 Concentration -6.0, 1 µM) was 167%, the “Percent Growth” value (SK-OV-3; [3]) was 159% and the “Percent Growth” value (SK-OV-3; Log10 Concentration -8.0) was 192%. The TGI (SK-OV-3; PG=0) was 73.4 µM, the GI50 (SK-OV-3; PG=+50) was 73.4 µM and the CC50 (SK-OV-3; read-out: LC-50, PG=-50) was greater than 100 µM. The “Percent Growth” value (NCI-H23; [2]) was -48%, the “Percent Growth” value (NCI-H23; Log10 Concentration -5.0) was -26% and the “Percent Growth” value (NCI-H23; Log10 Concentration -6.0, 1 µM) was 39%. The “Percent Growth” value (NCI-H23; [3]) was 97%, the “Percent Growth” value (NCI-H23; Log10 Concentration -8.0) was 112% and the TGI (NCI-H23; PG=0) was 4.02 µM. The GI50 (NCI-H23; PG=+50) was 0.648 µM and the CC50 (NCI-H23; read-out: LC-50, PG=-50) was greater than 100 µM.
